In brackets after ≈: the same amount, converted by molar mass.
Assays:
[1] = system: Mycobacterium tuberculosis H37Rv and clinical isolates 6341 and 6374; test: MIC and MBC, classical method, over several strains; type: cell-based
M. vaccae IMET 10 10670 = type: cell-based
[2] = system: Mycobacterium tuberculosis clinical isolate 6374; type: cell-based
[3] = Toxicity after per os administration; settings: mice
[4] = system: Mycobacterium smegmatis SG 987; type: cell-based; settings: Mycolicibacterium smegmatis, SG987; read-out: MIC M. smegmatis
in vivo = settings: mouse
[5] = system: Mycobacterium tuberculosis clinical isolate 6341; type: cell-based
[6] = system: Mycobacterium tuberculosis H37Rv; test: Murine TB model (experimental hematogenously disseminated tuberculosis); type: in vivo, BALB/c line mice; settings: for Injury index: daily 6 times per week, four-score scale, liver, spleen and lungs; for Efficacy index (%): 100% - injury index of group / injury index of control x 100; for right lung Culture, without dilution CFU / spleen Culture, without dilution CFU: 42 days after inoculation of the culture medium

CC1COC2(CCN(c3nc(=O)c4cc(C(F)(F)F)cc([N+](=O)[O-])c4s3)CC2)O1 (centres unmarked) [Compound 2, 2-(2-methyl-1,4-dioxa-8-azaspiro[4.5]dec-8-yl)-8-nitro-6-(trifluoromethyl)-1,3-benzothiazin-4-one]
MBC ([1]; read-out: MBC (µg/mL) mean): 0.45 µg/mL (≈ 1.04 µM)
MIC ([1]; read-out: MIC (µg/mL) mean): 0.29 µg/mL (≈ 0.672 µM)
MIC M.vaccae (M. vaccae IMET 10 10670): 0,76pg/ml
MBC [2]: 0.39 µg/mL (≈ 0.904 µM)
MIC [2]: 0.195 µg/mL (≈ 0.452 µM)
toxicity ([3]; doses ranging up to 2000 mg/kg): non toxic
animal death ([3]; doses up to 2000 mg/kg, during 7 days of investigations): no cases of animal death
MIC [4]: 0.00156 µg/mL (≈ 0.00362 µM)
LD50 (in vivo): > 2000 mg/kg
MBC [5]: 0.39 µg/mL (≈ 0.904 µM)
MIC [5]: 0.29 µg/mL (≈ 0.672 µM)
Injury index ([6]; 12 mg/kg orally): 2,1
Efficacy index (%) ([6]; 12 mg/kg orally): 44,7%
right lung Culture, without dilution CFU ([6]; 12 mg/kg orally): ∼ 60 CFU
spleen Culture, without dilution CFU ([6]; 12 mg/kg orally): ∼ 60 CFU
Injury index ([6]; 25 mg/kg orally): 1,0
Efficacy index (%) ([6]; 25 mg/kg orally): 78%
right lung Culture, without dilution CFU ([6]; 25 mg/kg orally): ∼ 35 CFU
spleen Culture, without dilution CFU ([6]; 25 mg/kg orally): ∼ 35 CFU
Survival of animals ([6]; Group 3, 12 mg/kg oral, day of treatment 1, of 10 animals): 10
Survival of animals ([6]; Group 3, 12 mg/kg oral, day of treatment 2, of 10 animals): 10
Survival of animals ([6]; Group 3, 12 mg/kg oral, day of treatment 3, of 10 animals): 10
Survival of animals ([6]; Group 3, 12 mg/kg oral, day of treatment 4, of 10 animals): 10
Survival of animals ([6]; Group 3, 12 mg/kg oral, day of treatment 5, of 10 animals): 10
Survival of animals ([6]; Group 3, 12 mg/kg oral, day of treatment 6, of 10 animals): 10
Survival of animals ([6]; Group 3, 12 mg/kg oral, day of treatment 7, of 10 animals): 10
Survival of animals ([6]; Group 3, 12 mg/kg oral, day of treatment 8, of 10 animals): 10
Survival of animals ([6]; Group 3, 12 mg/kg oral, day of treatment 9, of 10 animals): 10
Survival of animals ([6]; Group 3, 12 mg/kg oral, day of treatment 10, of 10 animals): 10
Survival of animals ([6]; Group 3, 12 mg/kg oral, day of treatment 11, of 10 animals): 10
Survival of animals ([6]; Group 3, 12 mg/kg oral, day of treatment 12, of 10 animals): 10
Survival of animals ([6]; Group 3, 12 mg/kg oral, day of treatment 13, of 10 animals): 10
Survival of animals ([6]; Group 3, 12 mg/kg oral, day of treatment 14, of 10 animals): 10
Survival of animals ([6]; Group 3, 12 mg/kg oral, day of treatment 15, of 10 animals): 10
Survival of animals ([6]; Group 3, 12 mg/kg oral, day of treatment 16, of 10 animals): 10
Survival of animals ([6]; Group 3, 12 mg/kg oral, day of treatment 17, of 10 animals): 10
Survival of animals ([6]; Group 3, 12 mg/kg oral, day of treatment 18, of 10 animals): 10
Survival of animals ([6]; Group 3, 12 mg/kg oral, day of treatment 19, of 10 animals): 10
Survival of animals ([6]; Group 3, 12 mg/kg oral, day of treatment 20, of 10 animals): 10
Survival of animals ([6]; Group 3, 12 mg/kg oral, day of treatment 21, of 10 animals): 10
Survival of animals ([6]; Group 3, 12 mg/kg oral, day of treatment 22, of 10 animals): 10
Survival of animals ([6]; Group 3, 12 mg/kg oral, day of treatment 23, of 10 animals): 10
Survival of animals ([6]; Group 3, 12 mg/kg oral, day of treatment 24, of 10 animals): 10
Survival of animals ([6]; Group 3, 12 mg/kg oral, day of treatment 25, of 10 animals): 10
Survival of animals ([6]; Group 3, 12 mg/kg oral, day of treatment 26, of 10 animals): 10
Survival of animals ([6]; Group 3, 12 mg/kg oral, day of treatment 27): 100%
Survival of animals ([6]; Groups 4/5, 25 mg/kg oral, day of treatment 1, of 10 animals): 10
Survival of animals ([6]; Groups 4/5, 25 mg/kg oral, day of treatment 2, of 10 animals): 10
Survival of animals ([6]; Groups 4/5, 25 mg/kg oral, day of treatment 3, of 10 animals): 10
Survival of animals ([6]; Groups 4/5, 25 mg/kg oral, day of treatment 4, of 10 animals): 10
Survival of animals ([6]; Groups 4/5, 25 mg/kg oral, day of treatment 5, of 10 animals): 10
Survival of animals ([6]; Groups 4/5, 25 mg/kg oral, day of treatment 6, of 10 animals): 10
Survival of animals ([6]; Groups 4/5, 25 mg/kg oral, day of treatment 7, of 10 animals): 10
Survival of animals ([6]; Groups 4/5, 25 mg/kg oral, day of treatment 8, of 10 animals): 10
Survival of animals ([6]; Groups 4/5, 25 mg/kg oral, day of treatment 9, of 10 animals): 10
Survival of animals ([6]; Groups 4/5, 25 mg/kg oral, day of treatment 10, of 10 animals): 10
Survival of animals ([6]; Groups 4/5, 25 mg/kg oral, day of treatment 11, of 10 animals): 10
Survival of animals ([6]; Groups 4/5, 25 mg/kg oral, day of treatment 12, of 10 animals): 10
Survival of animals ([6]; Groups 4/5, 25 mg/kg oral, day of treatment 13, of 10 animals): 10
Survival of animals ([6]; Groups 4/5, 25 mg/kg oral, day of treatment 14, of 10 animals): 10
Survival of animals ([6]; Groups 4/5, 25 mg/kg oral, day of treatment 15, of 10 animals): 10
Survival of animals ([6]; Groups 4/5, 25 mg/kg oral, day of treatment 16, of 10 animals): 10
Survival of animals ([6]; Groups 4/5, 25 mg/kg oral, day of treatment 17, of 10 animals): 10
Survival of animals ([6]; Groups 4/5, 25 mg/kg oral, day of treatment 18, of 10 animals): 10
Survival of animals ([6]; Groups 4/5, 25 mg/kg oral, day of treatment 19, of 10 animals): 10
Survival of animals ([6]; Groups 4/5, 25 mg/kg oral, day of treatment 20, of 10 animals): 10
Survival of animals ([6]; Groups 4/5, 25 mg/kg oral, day of treatment 21, of 10 animals): 10
Survival of animals ([6]; Groups 4/5, 25 mg/kg oral, day of treatment 22, of 10 animals): 10
Survival of animals ([6]; Groups 4/5, 25 mg/kg oral, day of treatment 23, of 10 animals): 10
Survival of animals ([6]; Groups 4/5, 25 mg/kg oral, day of treatment 24, of 10 animals): 10
Survival of animals ([6]; Groups 4/5, 25 mg/kg oral, day of treatment 25, of 10 animals): 10
Survival of animals ([6]; Groups 4/5, 25 mg/kg oral, day of treatment 26, of 10 animals): 10
Survival of animals ([6]; Groups 4/5, 25 mg/kg oral, day of treatment 27): 100%
mice survived ([6]; murine model of tuberculosis infection, all control animals died until day 33): 100%

Reference: EP2181998B1, “New benzothiazinone derivative and its use as antibacterial agent” (priority 2006, dated 2007)
